Where a name gives a salt, the structure may show the parent alone.
System: HCT116 cells
Test: HCT116 cytotoxic activity assay (Alamar Blue, 72 h)
Format: cell-based
Settings: Homo sapiens, HCT-116, 72 h compound exposure
Method: Representative compounds of this invention were tested for cytotoxicity using the above-described assay procedure with the following results: […]

[1] = greater than 500 nM but less than or equal to 2 μM

Row | Structure (SMILES) | IC50 (less than or equal to 500 nM) | also measured
1 | COC[C@@H]1CCCN1c1cc(Oc2cccc(Nc3cc(-c4ccccc4)nc(N)n3)c2)ccn1 [Example 122, N4*-[3-({2-[2-(methoxymethyl)pyrrolidin-1-yl]pyridin-4-yl}oxy)phenyl]-6-phenylpyrimidine-2,4-diamine] | – | IC50 (greater than 2 μM): > 2 µM
2 | Nc1nc(Nc2cccc(Oc3ccnc(N4CCC[C@@H]4CO)c3)c2)cc(-c2ccccc2)n1 [Example 123, [(2R)-1-(4-{3-[(2-amino-6-phenylpyrimidin-4-yl)amino]phenoxy}pyridin-2-yl)pyrrolidin-2-yl]methanol] | ≤ 0.5 µM | –
3 | COCCN(C)c1cc(Oc2cccc(Nc3cc(-c4ccccc4)nc(N)n3)c2)ccn1 [Example 124, N4*-[3-({2-[(2-methoxyethyl)(methyl)amino]pyridin-4-yl}oxy)phenyl]-6-phenylpyrimidine-2,4-diamine] | ≤ 0.5 µM | –
4 | CC1CCCN1c1cc(Oc2cccc(Nc3cc(-c4ccccc4)nc(N)n3)c2)ccn1 (stereo not drawn) [Example 125, N4*-(3-{[2-(2-methylpyrrolidin-1-yl)pyridin-4-yl]oxy}phenyl)-6-phenylpyrimidine-2,4-diamine] | ≤ 0.5 µM | –
5 | COCCN(CCOC)c1cc(Oc2cccc(Nc3cc(-c4ccccc4)nc(N)n3)c2)ccn1 [Example 126, N4*-[3-({2-[bis(2-methoxyethyl)amino]pyridin-4-yl}oxy)phenyl]-6-phenylpyrimidine-2,4-diamine] | – | IC50 (greater than 2 μM): > 2 µM
6 | Nc1nc(Nc2cccc(Oc3ccnc(N(CCO)CCO)c3)c2)cc(-c2ccccc2)n1 [Example 127, 2,2′-[(4-{3-[(2-amino-6-phenylpyrimidin-4-yl)amino]phenoxy}pyridin-2-yl)imino]diethanol] | ≤ 0.5 µM | –
7 | Nc1nc(Nc2cccc(Oc3ccnc(N4CCC[C@H]4CO)c3)c2)cc(-c2ccccc2)n1 [Example 128, [(2S)-1-(4-{3-[(2-amino-6-phenylpyrimidin-4-yl)amino]phenoxy}pyridin-2-yl)pyrrolidin-2-yl]methanol] | – | IC50 [1]: 0.5 to 2 µM
8 | Nc1nc(Nc2ccc(Oc3ccnc(N(CCO)CCO)c3)cc2)cc(-c2ccccc2)n1 [Example 129, 2,2′-[(4-{4-[(2-amino-6-phenylpyrimidin-4-yl)amino]phenoxy}pyridin-2-yl)imino]diethanol] | ≤ 0.5 µM | –
9 | CN1CCN(c2cc(Oc3cccc(Nc4cc(-c5ccccc5)nc(N)n4)c3)ccn2)CC1 [Example 130, N4*-(3-{[2-(4-methylpiperazin-1-yl)pyridin-4-yl]oxy}phenyl)-6-phenylpyrimidine-2,4-diamine] | – | IC50 [1]: 0.5 to 2 µM
10 | Nc1nc(Nc2ccc(Oc3ccnc(N(N)Cc4ccccc4)c3)cc2)cc(-c2ccccc2)n1 [Example 131, N4*-(4-{[2-(1-benzylhydrazino)pyridin-4-yl]oxy}phenyl)-6-phenylpyrimidine-2,4-diamine] | – | IC50 [1]: 0.5 to 2 µM
11 | COC[C@H]1CCCN1c1cc(Oc2ccc(Nc3cc(-c4ccccc4)nc(N)n3)cc2)ccn1 [Example 133, N4*-[4-({2-[(2R)-2-(methoxymethyl)pyrrolidin-1-yl]pyridin-4-yl}oxy)phenyl]-6-phenylpyrimidine-2,4-diamine] | ≤ 0.5 µM | –
12 | Nc1nc(Nc2ccc(Oc3ccnc(N4CCOCC4)c3)cc2)cc(-c2ccccc2)n1 [Example 134, N4*-{4-[(2-morpholin-4-ylpyridin-4-yl)oxy]phenyl}-6-phenylpyrimidine-2,4-diamine] | ≤ 0.5 µM | –
13 | CN1CCN(c2cc(Oc3ccc(Nc4cc(-c5ccccc5)nc(N)n4)cc3)ccn2)CC1 [Example 135, N4*-(4-{[2-(4-methylpiperazin-1-yl)pyridin-4-yl]oxy}phenyl)-6-phenylpyrimidine-2,4-diamine] | – | IC50 [1]: 0.5 to 2 µM
14 | COCCN1CCN(c2cc(Oc3ccc(Nc4cc(-c5ccccc5)nc(N)n4)cc3)ccn2)CC1 [Example 136, N4*-[4-({2-[4-(2-methoxyethyl)piperazin-1-yl]pyridin-4-yl}oxy)phenyl]-6-phenylpyrimidine-2,4-diamine] | – | IC50 [1]: 0.5 to 2 µM
15 | COCCN(C)c1cc(Oc2ccc(Nc3cc(-c4ccccc4)nc(N)n3)cc2)ccn1 [Example 137, N4*-[4-({2-[(2-methoxyethyl)(methyl)amino]pyridin-4-yl}oxy)phenyl]-6-phenylpyrimidine-2,4-diamine] | ≤ 0.5 µM | –
16 | CN(C)CCNc1cc(Oc2ccc(Nc3cc(-c4ccccc4)nc(N)n3)cc2)ccn1 [Example 138, N4*-{4-[(2-{[2-(dimethylamino)ethyl]amino}pyridin-4-yl)oxy]phenyl}-6-phenylpyrimidine-2,4-diamine] | – | IC50 [1]: 0.5 to 2 µM
17 | Nc1nc(Nc2ccc(Oc3ccnc(N4CCCCC4)c3)cc2)cc(-c2ccccc2)n1 [Example 139, 6-phenyl-N4*-{4-[(2-piperidin-1-ylpyridin-4-yl)oxy]phenyl}pyrimidine-2,4-diamine] | ≤ 0.5 µM | –
18 | COCCN(CCOC)c1cc(Oc2ccc(Nc3cc(-c4ccccc4)nc(N)n3)cc2)ccn1 [Example 140, N4*-[4-({2-[bis(2-methoxyethyl)amino]pyridin-4-yl}oxy)phenyl]-6-phenylpyrimidine-2,4-diamine] | ≤ 0.5 µM | –

Row | Structure (SMILES) | IC50 (less than or equal to 500 nM) | also measured
19 | CCN(CC)CCCNc1cc(Oc2ccc(Nc3cc(-c4ccccc4)nc(N)n3)cc2)ccn1 [Example 141, N4*-{4-[(2-{[3-(diethylamino)propyl]amino}pyridin-4-yl)oxy]phenyl}-6-phenylpyrimidine-2,4-diamine] | – | IC50 [1]: 0.5 to 2 µM
20 | Nc1nc(Nc2ccc(Oc3ccnc(NCCCN4CCOCC4)c3)cc2)cc(-c2ccccc2)n1 [Example 142, N4*-[4-({2-[(3-morpholin-4-ylpropyl)amino]pyridin-4-yl}oxy)phenyl]-6-phenylpyrimidine-2,4-diamine] | ≤ 0.5 µM | –
21 | COc1cc(-c2cc(Nc3ccc(Oc4ccnc(N5CCOCC5)c4)cc3)nc(N)n2)ccc1O [Example 143, 4-[2-amino-6-({4-[(2-morpholin-4-ylpyridin-4-yl)oxy]phenyl}amino)pyrimidin-4-yl]-2-methoxyphenol] | ≤ 0.5 µM | –
22 | CN(C)[C@H]1CCN(c2cc(Oc3ccc(Nc4cc(-c5ccccc5)nc(N)n4)cc3)ccn2)C1 [Example 144, N4*-[4-({2-[(3S)-3-(dimethylamino)pyrrolidin-1-yl]pyridin-4-yl}oxy)phenyl]-6-phenylpyrimidine-2,4-diamine] | – | IC50 [1]: 0.5 to 2 µM
23 | Nc1nc(Nc2ccc(Oc3ccnc(N4CCC[C@H]4CO)c3)cc2)cc(-c2ccccc2)n1 [Example 145, [(2S)-1-(4-{4-[(2-amino-6-phenylpyrimidin-4-yl)amino]phenoxy}pyridin-2-yl)pyrrolidin-2-yl]methanol] | ≤ 0.5 µM | –
24 | Nc1nc(Nc2ccc(Oc3ccnc(N4CC[C@@H](O)C4)c3)cc2)cc(-c2ccccc2)n1 [Example 146, (3R)-1-(4-{4-[(2-amino-6-phenylpyrimidin-4-yl)amino]phenoxy}pyridin-2-yl)pyrrolidin-3-ol] | ≤ 0.5 µM | –
25 | COC[C@H]1CCCN1c1cc(Oc2cccc(Nc3cc(-c4ccccc4)nc(N)n3)c2)ccn1 [Example 147, N4*-[3-({2-[(2R)-2-(methoxymethyl)pyrrolidin-1-yl]pyridin-4-yl}oxy)phenyl]-6-phenylpyrimidine-2,4-diamine] | – | IC50 (greater than 2 μM): > 2 µM
26 | Nc1nc(Nc2ccc(Oc3ccnc(C(F)(F)F)c3)cc2)cc(-c2ccc(NC(=O)CCC(=O)O)cc2)n1 [Example 148, 4-[(4-{2-amino-6-[(4-{[2-(trifluoromethyl)pyridin-4-yl]oxy}phenyl)amino]pyrimidin-4-yl}phenyl)amino]-4-oxobutanoic acid] | – | IC50 [1]: 0.5 to 2 µM
27 | COc1cc(-c2cc(Nc3ccc(Oc4ccnc(C(F)(F)F)c4)cc3)nc(N)n2)ccc1OC(=O)CNC(=O)OC(C)(C)C [Example 149, 4-{2-amino-6-[(4-{[2-(trifluoromethyl)pyridin-4-yl]oxy}phenyl)amino]pyrimidin-4-yl}-2-methoxyphenyl N-(tert-butoxycarbonyl)glycinate] | ≤ 0.5 µM | –
28 | COc1cc(-c2cc(Nc3ccc(Oc4ccnc(C(F)(F)F)c4)cc3)nc(N)n2)ccc1OC(=O)CN [Example 150, 4-{2-amino-6-[(4-{[2-(trifluoromethyl)pyridin-4-yl]oxy}phenyl)amino]pyrimidin-4-yl}-2-methoxyphenyl glycinate hydrochloride] | ≤ 0.5 µM | –
29 | COc1cc(-c2cc(Nc3ccc(Oc4ccnc(C(F)(F)F)c4)cc3)nc(N)n2)ccc1N [Example 153, 6-(4-amino-3-methoxyphenyl)-N4*-(4-{[2-(trifluoromethyl)pyridin-4-yl]oxy}phenyl) pyrimidine-2,4-diamine] | ≤ 0.5 µM | –
30 | Cc1ccccc1-c1cc(Nc2ccc(Oc3ccnc(CN)c3)cc2)nc(N)n1 [Example 154, N4*-(4-{[2-(aminomethyl)pyridin-4-yl]oxy}phenyl)-6-(2-methylphenyl) pyrimidine-2,4-diamine] | ≤ 0.5 µM | –
31 | Nc1nc(Nc2ccc(Oc3ccnc(C(F)(F)F)c3)cc2)cc(-c2ccccc2C(F)(F)F)n1 [Example 155, 6-[2-(trifluoromethyl)phenyl]-N4*-(4-{[2-(trifluoromethyl)pyridin-4-yl]oxy}phenyl)pyrimidine-2,4-diamine] | ≤ 0.5 µM | –
32 | CCc1ccccc1-c1cc(Nc2ccc(Oc3ccnc(C(F)(F)F)c3)cc2)nc(N)n1 [Example 156, 6-(2-ethylphenyl)-N4*-(4-{[2-(trifluoromethyl)pyridin-4-yl]oxy}phenyl) pyrimidine-2,4-diamine] | ≤ 0.5 µM | –
33 | CCOc1ccccc1-c1cc(Nc2ccc(Oc3ccnc(C(F)(F)F)c3)cc2)nc(N)n1 [Example 157, 6-(2-ethoxyphenyl)-N4*-(4-{[2-(trifluoromethyl)pyridin-4-yl]oxy}phenyl) pyrimidine-2,4-diamine] | ≤ 0.5 µM | –
34 | Cc1ccc(F)c(-c2cc(Nc3ccc(Oc4ccnc(C(F)(F)F)c4)cc3)nc(N)n2)c1 [Example 158, 6-(2-fluoro-5-methylphenyl)-N4*-(4-{[2-(trifluoromethyl)pyridin-4-yl]oxy}phenyl)pyrimidine-2,4-diamine] | ≤ 0.5 µM | –
35 | Nc1nc(Nc2ccc(Oc3ccnc(C(F)(F)F)c3)cc2)cc(-c2cccc(F)c2F)n1 [Example 159, 6-(2,3-difluorophenyl)-N4*-(4-{[2-(trifluoromethyl)pyridin-4-yl]oxy}phenyl)pyrimidine-2,4-diamine] | ≤ 0.5 µM | –
36 | Nc1nc(Nc2ccc(Oc3ccnc(C(F)(F)F)c3)cc2)cc(-c2cc(F)ccc2F)n1 [Example 160, 6-(2,5-difluorophenyl)-N4*-(4-{[2-(trifluoromethyl)pyridin-4-yl]oxy}phenyl)pyrimidine-2,4-diamine] | ≤ 0.5 µM | –

— patent US7582645B2, “Pyrimidine derivatives for treatment of hyperproliferative disorders” (Bayer Pharmaceuticals Corporation, priority 2003, dated 2009)
